# Assay results published in PMC2929268 (The Journal of organic chemistry, 2010).
# How the values were obtained:
# hMC4R [1] = target: T1, hMC4R (Homo sapiens, UniProt P32245); test: Assay A: europium-based competitive binding assay with probe 17; conditions: over the range of concentrations tested
# hMC4R [2] = target: T1, hMC4R; test: Assay B: europium-based competitive binding assay with probe 18; conditions: over the range of concentrations tested
# T1 sequence (P32245 whole entry): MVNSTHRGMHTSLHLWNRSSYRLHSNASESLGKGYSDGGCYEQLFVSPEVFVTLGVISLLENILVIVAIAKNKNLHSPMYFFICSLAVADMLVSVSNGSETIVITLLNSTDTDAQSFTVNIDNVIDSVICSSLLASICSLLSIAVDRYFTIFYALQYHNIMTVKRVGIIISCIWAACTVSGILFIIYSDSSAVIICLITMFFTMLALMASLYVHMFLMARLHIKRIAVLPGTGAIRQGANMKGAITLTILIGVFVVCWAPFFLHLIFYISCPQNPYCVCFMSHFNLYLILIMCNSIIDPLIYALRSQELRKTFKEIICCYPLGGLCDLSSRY
compound,measurement,setting,value
"CCCCc1cn(CCCCCC(=O)NC(CO)C(N)=O)nn1 (centres unmarked) [Compound 11, N-(1-Amino-3-hydroxy-1-oxopropan-2-yl)-6-(4-butyl-1H-1,2,3-triazol-1-yl)hexanamide]",blocking probe 17 from binding to hMC4R,hMC4R [1],ineffective
same,blocking probe 18 from binding to hMC4R,hMC4R [2],ineffective
